From patent US7811797B2, “α-isomaltosylglucosaccharide-forming enzyme, process and uses of the same” (Kabushiki Kaisha Hayashibara Seibutsu Kagaku Kenkyujo, priority 2000, dated 2010) come the findings set out here.

The test system of experiment [1] is α-isomaltosylglucosaccharide-forming enzyme. Nature of the experiment: Action on saccharides (substrates), Enzyme of Strain C9. It counts as biochemical, Bacillus globisporus C9. Also on record: key: −: it showed no change; +: it showed a slight reduction of the color spot of the substrate and the formation of other reaction product; ++: it showed a high reduction of the color spot of the substrate and the formation of other reaction product; +++: it showed a substantial disappearance of the substrate spot and the formation of other reaction product. The conditions noted are these: two units/g substrate, substrate 2% (w/v), 30° C., pH 6.0, 24 hours, TLC. As for the experimental part:
(§1) It was tested whether saccharides can be used as substrates for the α-isomaltosylglucosaccharide-forming enzyme. For the purpose, a solution of maltose, maltotriose, maltotetraose, maltopentaose, maltohexaose, maltoheptaose, isomaltose, isomaltotriose, panose, isopanose, trehalose, kojibiose, nigerose, neotrehalose, cellobiose, gentibiose, maltitol, maltotriitol, lactose, sucrose, erlose, selaginose, maltosyl glucoside, or isomaltosyl glucoside was prepared.
(§2) To each of the above solutions was added two units/g substrate of a purified specimen of α-isomaltosylglucosaccharide-forming enzyme from either Bacillus globisporus C9 obtained by the method in Experiment 4-2, Bacillus globisporus C11 obtained by the method in Experiment 7-2, Bacillus globisporus N75 obtained by the method in Experiment 11-2, or Arthrobacter globiformis A19 obtained by the method in Experiment 15-2, and the resulting each solution was adjusted to give a substrate concentration of 2% (w/v) and incubated at 30° C. and pH 6.0, except for using pH 8.4 for the enzyme from Arthrobacter globiformis A19, for 24 hours. The enzyme solutions before and after the enzymatic reactions were respectively analyzed on TLC disclosed in Experiment 1 to confirm whether the enzymes acted on these substrates.

The test system is the same in experiment [2]. Nature of the experiment: Transfer-acceptor specificity, Enzyme of Strain A19. Conditions: acceptor 1.6%, PINE-DEX #100 donor 4%, one unit/g donor, 30° C., pH 8.4, 24 hours. Type of experiment: biochemical, Arthrobacter globiformis A19. How it is done:
(§3) Using different saccharides, it was tested whether the saccharides were used as transferring-acceptors for the α-isomaltosylglucosaccharide-forming enzyme of the present invention. A solution of D-glucose, D-xylose, L-xylose, D-galactose, D-fructose, D-mannose, D-arabinose, D-fucose, D-psicose, L-sorbose, L-rhamnose, methyl-α-glucopyranoside, methyl-β-glucopyranoside, N-acetyl-glucosamine, sorbitol, trehalose, isomaltose, isomaltotriose, cellobiose, gentibiose, glycerol, maltitol, lactose, sucrose, α-cyclodextrin, β-cyclodextrin, γ-cyclodextrin, or L-ascorbic acid was prepared.
(§4) To each solution with a saccharide concentration of 1.6% was added “PINE-DEX #100”, a partial starch hydrolysate, as a saccharide donor, to give a concentration of 4%, and admixed with one unit/g saccharide donor, d.s.b., of either of purified specimens of α-isomaltosylglucosaccharide-forming enzyme from Bacillus globisporus C9 obtained by the method in Experiment 4-2, Bacillus globisporus C11 obtained by the method in Experiment 7-2, Bacillus globisporus N75 obtained by the method in Experiment 11-2, or Arthrobacter globiformis A19 obtained by the method in Experiment 15-2, and incubated at 30° C. and pH 6.0, except that pH 8.4 was used for the enzyme from Arthrobacter globiformis A19, for 24 hours. The reaction mixtures of the post-enzymatic reactions were analyzed on gas chromatography (abbreviated as “GLC” hereinafter) for monosaccharides and disaccharides as acceptors, and on HPLC for trisaccharides as acceptors to confirm whether these saccharides could be used as their transfer acceptors. In the case of performing GLC, the following apparatuses and conditions are used: GLC apparatus, “GC-16A” commercialized by Shimadzu Corporation, Tokyo, Japan; column, a stainless-steel column, 3 mm in diameter and 2 m in length, packed with 2% “SILICONE OV-17/[…]”, commercialized by GL Sciences Inc., Tokyo, Japan; carrier gas, nitrogen gas at a flow rate of 40 ml/min under temperature conditions of increasing from 160° C. to 320° C. at an increasing temperature rate of 7.5° C./min; and detection, a hydrogen flame ionization detector. In the case of HPLC analysis, the apparatuses and conditions used are: HPLC apparatus, “CCPD” commercialized by Tosoh Corporation, Tokyo, Japan; column, “ODS-AQ-303” commercialized by YMC Co., Ltd., Tokyo, Japan; eluent, water at a flow rate of 0.5 ml/min; and detection, a differential refractometer.

For experiment [3] the test system is unchanged. Nature of the experiment: Action on saccharides (substrates), Enzyme of Strain N75. It counts as biochemical, Bacillus globisporus N75. More on the design: key: −: it showed no change; +: it showed a slight reduction of the color spot of the substrate and the formation of other reaction product; ++: it showed a high reduction of the color spot of the substrate and the formation of other reaction product; +++: it showed a substantial disappearance of the substrate spot and the formation of other reaction product. Conditions: two units/g substrate, substrate 2% (w/v), 30° C., pH 6.0, 24 hours, TLC. How it is done:
as §1, §2

Experiment [4] shares this test system. Nature of the experiment: Action on saccharides (substrates), Enzyme of Strain A19. Type of experiment: biochemical, Arthrobacter globiformis A19. Also on record: key: −: it showed no change; +: it showed a slight reduction of the color spot of the substrate and the formation of other reaction product; ++: it showed a high reduction of the color spot of the substrate and the formation of other reaction product; +++: it showed a substantial disappearance of the substrate spot and the formation of other reaction product. The conditions noted are these: two units/g substrate, substrate 2% (w/v), 30° C., pH 8.4, 24 hours, TLC. As for the experimental part: as §1, §2

Experiment [5] shares this test system. In words: Transfer-acceptor specificity, Enzyme of Strain C11. Conditions: acceptor 1.6%, PINE-DEX #100 donor 4%, one unit/g donor, 30° C., pH 6.0, 24 hours. It counts as biochemical, Bacillus globisporus C11. How it is done: as §3, §4
For experiment [6] the test system is unchanged. Nature of the experiment: Action on saccharides (substrates), Enzyme of Strain C11. It counts as biochemical, Bacillus globisporus C11. More on the design: key: −: it showed no change; +: it showed a slight reduction of the color spot of the substrate and the formation of other reaction product; ++: it showed a high reduction of the color spot of the substrate and the formation of other reaction product; +++: it showed a substantial disappearance of the substrate spot and the formation of other reaction product. Conditions: two units/g substrate, substrate 2% (w/v), 30° C., pH 6.0, 24 hours, TLC. As for the experimental part: as §1, §2

The test system is the same in experiment [7]. In words: Transfer-acceptor specificity, Enzyme of Strain C9. The conditions noted are these: acceptor 1.6%, PINE-DEX #100 donor 4%, one unit/g donor, 30° C., pH 6.0, 24 hours. It counts as biochemical, Bacillus globisporus C9. As for the experimental part: as §3, §4
Experiment [8] has the same test system. Nature of the experiment: Transfer-acceptor specificity, Enzyme of Strain N75. It counts as biochemical, Bacillus globisporus N75. Conditions: acceptor 1.6%, PINE-DEX #100 donor 4%, one unit/g donor, 30° C., pH 6.0, 24 hours. As for the experimental part:
as §3, §4

Turning to `O=C[C@H](O)[C@@H](O)[C@H](O[C@@H]1O[C@H](CO)[C@@H](O)[C@H](O)[C@H]1O)[C@H](O)CO` [Cellobiose], in experiment [1], the “Enzymatic action, Enzyme of Strain C9” value was “−”. In addition, the “Product of transferring reaction, Enzyme of Stain A19” value (shortened to “Product … of Stain A19”) in experiment [2] is recorded as “++ (a saccharide-transferred product was detected in an amount over ten percent through transfer reaction to acceptor)”. The “Enzymatic action, Enzyme of Strain N75” value in experiment [3] is listed as “−”. The “Enzymatic action, Enzyme of Strain A19” value in experiment [4] is listed as “−”. The “Product of transferring reaction, Enzyme of Strain C11” value (from here on “Product … of Strain C11”) in experiment [5] is “++ (a saccharide-transferred product was detected in an amount over ten percent through transfer reaction to acceptor)”. Besides, the “Enzymatic action, Enzyme of Strain C11” value in experiment [6] is recorded as “−”. Besides, in experiment [7], the “Product of transferring reaction, Enzyme of Strain C9” value (from here on “Product … of Strain C9”) is “++ (a saccharide-transferred product was detected in an amount over ten percent through transfer reaction to acceptor)”. Also, in experiment [8], the “Product of transferring reaction, Enzyme of Strain N75” value (“Product … of Strain N75” for short) is recorded as “++ (a saccharide-transferred product was detected in an amount over ten percent through transfer reaction to acceptor)”.
As for `OC[C@H]1O[C@@H](OC[C@H]2OC(O)[C@H](O)[C@@H](O)[C@@H]2O)[C@H](O)[C@@H](O)[C@@H]1O` (stereo partly shown) [Gentibiose], the “Enzymatic action, Enzyme of Strain C9” value in experiment [1] is given as “−”. Moreover, the “Product … of Stain A19” value in experiment [2] is on record as “+ (a saccharide-transferred product was detected in an amount over one percent but less than ten percent through transfer reaction to acceptor)”. Also, in experiment [3], the “Enzymatic action, Enzyme of Strain N75” value is given as “−”. Further, in experiment [4], the “Enzymatic action, Enzyme of Strain A19” value is reported as “−”. For the same compound, in experiment [5], the “Product … of Strain C11” value was “++ (a saccharide-transferred product was detected in an amount over ten percent through transfer reaction to acceptor)”. Besides, in experiment [6], the “Enzymatic action, Enzyme of Strain C11” value is “−”. Besides, in experiment [7], the “Product … of Strain C9” value was “++ (a saccharide-transferred product was detected in an amount over ten percent through transfer reaction to acceptor)”. Moreover, the “Product … of Strain N75” value in experiment [8] is reported as “++ (a saccharide-transferred product was detected in an amount over ten percent through transfer reaction to acceptor)”.
For `OC[C@H]1O[C@H](OC[C@H]2OC(O)[C@H](O)[C@@H](O)[C@@H]2O)[C@H](O)[C@@H](O)[C@@H]1O` (stereo partly shown) [Isomaltose], the “Enzymatic action, Enzyme of Strain C9” value in experiment [1] is “−”. Further, in experiment [2], the “Product … of Stain A19” value is recorded as “+ (a saccharide-transferred product was detected in an amount over one percent but less than ten percent through transfer reaction to acceptor)”. In experiment [3], the “Enzymatic action, Enzyme of Strain N75” value is listed as “−”. Also, the “Enzymatic action, Enzyme of Strain A19” value in experiment [4] was “−”. For the same compound, in experiment [5], the “Product … of Strain C11” value is “++ (a saccharide-transferred product was detected in an amount over ten percent through transfer reaction to acceptor)”. For the same compound, the “Enzymatic action, Enzyme of Strain C11” value in experiment [6] was “−”. Moreover, in experiment [7], the “Product … of Strain C9” value is “++ (a saccharide-transferred product was detected in an amount over ten percent through transfer reaction to acceptor)”. Besides, the “Product … of Strain N75” value in experiment [8] is given as “++ (a saccharide-transferred product was detected in an amount over ten percent through transfer reaction to acceptor)”.
`OC[C@H]1O[C@H](OC[C@H]2O[C@H](OC[C@H]3OC(O)[C@H](O)[C@@H](O)[C@@H]3O)[C@H](O)[C@@H](O)[C@@H]2O)[C@H](O)[C@@H](O)[C@@H]1O` (stereo partly shown) [Isomaltotriose]: the “Enzymatic action, Enzyme of Strain C9” value in experiment [1] is on record as “−”. Moreover, in experiment [2], the “Product … of Stain A19” value was “∀ (a saccharide-transferred product was detected in an amount less than one percent through transfer reaction to acceptor)”. The “Enzymatic action, Enzyme of Strain N75” value in experiment [3] was “−”. In experiment [4], the “Enzymatic action, Enzyme of Strain A19” value is listed as “−”. Further, in experiment [5], the “Product … of Strain C11” value is reported as “++ (a saccharide-transferred product was detected in an amount over ten percent through transfer reaction to acceptor)”. Besides, in experiment [6], the “Enzymatic action, Enzyme of Strain C11” value is “−”. Besides, in experiment [7], the “Product … of Strain C9” value was “++ (a saccharide-transferred product was detected in an amount over ten percent through transfer reaction to acceptor)”. The “Product … of Strain N75” value in experiment [8] was “++ (a saccharide-transferred product was detected in an amount over ten percent through transfer reaction to acceptor)”.
`OC[C@H]1O[C@@H](O[C@H]2[C@H](O)[C@@H](O)C(O)O[C@@H]2CO)[C@H](O)[C@@H](O)[C@H]1O` (stereo partly shown) [Lactose]: the “Enzymatic action, Enzyme of Strain C9” value in experiment [1] is “−”. Besides, the “Product … of Stain A19” value in experiment [2] is on record as “++ (a saccharide-transferred product was detected in an amount over ten percent through transfer reaction to acceptor)”. Moreover, the “Enzymatic action, Enzyme of Strain N75” value in experiment [3] is reported as “−”. The “Enzymatic action, Enzyme of Strain A19” value in experiment [4] is “−”. Besides, in experiment [5], the “Product … of Strain C11” value is reported as “++ (a saccharide-transferred product was detected in an amount over ten percent through transfer reaction to acceptor)”. In addition, the “Enzymatic action, Enzyme of Strain C11” value in experiment [6] is given as “−”. In experiment [7], the “Product … of Strain C9” value is on record as “++ (a saccharide-transferred product was detected in an amount over ten percent through transfer reaction to acceptor)”. The “Product … of Strain N75” value in experiment [8] is reported as “++ (a saccharide-transferred product was detected in an amount over ten percent through transfer reaction to acceptor)”.
